Assay results from US20140315973A1, “PARP-1 INHIBITORS” (priority 2010, published 2014).

Key:
HBV core promoter = assay: Dual-luciferase reporter assay of HBV core promoter; assay type: cell-based, HBV genotype A
Description: The HBV core promoter deletions were cloned using a multi-step strategy. First, the wild-type core promoter from HBV genotype A was inserted via KpnI and HindIII sites on the PGL3 Basic vector. Using this as the template, PGLF (5′ TCCCCAGTGCAAGTGCAGG) was used with reverse primer BX, where “X” denotes the deletion number and contains the nucleotide sequence flanking the 3′ end of the deletion. This amplifies the 5′ half of mutant core promoter. Primer CX containing nucleotide sequences flanking the 5′ end of the deletion site was then used with reverse primer PGLR (5′ […]) to synthesize the 3′ end of the mutant promoter. The 2 halves were annealed via their complementary sequences and amplified using primers PGLF and PGLR. PCR was performed using the Expand High Fidelity PCR System (Roche), and ran on 1% agarose gels in TBE buffer. DNA of appropriate sizes were extracted using the Qiaquick Gel Extraction Kit (Qiagen), double-digested with enzymes from New England BioLabs, then annealed using the Quick Ligation Kit.
Assays were performed with the Dual-Luciferase® Reporter Assay System (Promega) with modifications. HepG2 cells were seeded 18 hours prior to transfection in 24-well plates in triplicates at a density of 1.5×10^5 cells per well. Transfection was performed with 2.2 μl Lipofectamine 2000 (Invitrogen), 1 μg of PGL3 Basic construct plasmid and 15 ng of Renilla-luciferase construct per well. Additionally, 250 ng of over-expression plasmids for PARP-1 mutants were used when indicated. Transfected cells were lysed with 60 μl lysis buffer at 37° C. on a shaking incubator for 20 minutes after washing thrice with ice-cold PBS 30 hours post-transfection and 50 μl of the lysate was transferred on ice into black 96-well plates with clear bottoms (Corning), and luminescence measured with the GloMax® Multi-Microplate Multimode Reader (Promega).

HBV = HBV transcripts in HepG2 cells transfected with HBV-RFP; assay type: cell-based, HBV genotype A; settings: 15 μM, added 24 hours after transfection, 48 hours later
Description: Full-length replicative HBV genotype A (approximately 1.1X HBV genome starting from nucleotide 1535, ending at nucleotide 1930) driven by its own core promoter cloned from another construct and inserted into pcDNA3.1+ via the MfeI and MluI restriction sites, […] of the CMV promoter. Primers used are as follows: […]
(§1) The coding sequence for red fluorescent protein (RFP) was cut from the pTurboFP635N (Evrogen) and inserted into the pcDNA3.1+ vector containing the HBV construct into the MCS via KpnI and NotI sites.

HepG2 cells = assay: Viable HBV-RFP transfected HepG2 cells; assay type: cell-based; settings: 15 μM, 72 hours after PARP inhibition
Description: as §1

breast or ovarian cancer = settings: cited from earlier work

NC(=O)c1cccc(N)c1 [3-AB, 3-aminobenzamide]
transcription (luciferase expression) at wild-type HBV core promoter (HBV core promoter; HepG2, inhibitor added 24 hours after transfection): increased transcription at the HBV core promoter in a dose-dependent manner
luciferase expression, mutant HBV core promoter with deletion of the PARP-1 binding site (Del-PARP1 motif) (HBV core promoter; HepG2 and Huh-7): negligible effect
luciferase expression, wild-type HBV core promoter (HBV core promoter; Huh-7): increased luciferase expression

CN(C)CC(=O)Nc1ccc2[nH]c(=O)c3ccccc3c2c1 [PJ-34]
increase in relative amounts of HBV transcripts (HBV): more than 3 fold
relative percentage of viable cells that were HBV-transfected vs DMSO control (HepG2 cells): significantly higher

O=C(c1cc(Cc2n[nH]c(=O)c3ccccc23)ccc1F)N1CCN(C(=O)C2CC2)CC1 [olaparib]
durable objective antitumor activity (breast or ovarian cancer; 60 patients, including 22 BRCA mutation carriers): observed only in confirmed carriers of a BRCA1 or BRCA2 mutation
BRCA carriers with ovarian, breast, or prostate cancers showing a clinical benefit (breast or ovarian cancer; Twelve of 19 BRCA carriers): 63%
side-effect profile (breast or ovarian cancer; phase 1, orally active): acceptable side-effect profile
